Target: T1, Arf1 (Homo sapiens, UniProt P84077)
T1 construct: endogenous Arf1 in Huh7 cells, active form pulled down with GGA3 and detected with anti-Arf1 antibody
Experiment: GGA3 pull-down of active Arf1, western blot
Type: cell-based
Settings: Huh7 cells; GBF1-dependent Arf1 activation

T1 sequence (P84077 2-181): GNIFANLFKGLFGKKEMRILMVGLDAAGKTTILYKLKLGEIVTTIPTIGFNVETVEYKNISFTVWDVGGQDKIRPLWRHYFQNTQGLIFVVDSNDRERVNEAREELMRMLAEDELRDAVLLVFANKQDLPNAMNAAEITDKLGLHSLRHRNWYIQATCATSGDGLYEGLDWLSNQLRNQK

Row | SMILES | GGA3 pull-down of active Arf1, western blot
1 | C(=N\Nc1ncnc2sc3c(c12)CCCC3)/c1ccc2[nH]ccc2c1 [DU101] | DU101 or DU102 treatment significantly inhibited Arf1 activity
2 | C(=N\Nc1ncnc2sc3c(c12)CCCCCC3)/c1ccc2[nH]ccc2c1 [DU102] | DU101 or DU102 treatment significantly inhibited Arf1 activity
